Laboratory results taken from patent US9072741B2, “Methods of treating liver fibrosis and pre-cirrhosis with epidermal growth factor receptor inhibitors” (The General Hospital Corporation, priority 2009, dated 2015).

System: DEN-induced liver fibrosis/pre-cirrhosis
Test: DEN-treated rats, treatment begun at 8, 12 or 15 weeks: Ishak score
Assay type: in vivo, male Wistar rats
Procedure: FIG. 8B is a bar graph depicting Ishak scores in male Wistar rats receiving weekly intraperitoneal injections of 50 mg/kg DEN for 18 weeks and vehicle only (n=8) or 2 mg/kg gefitnib (n=8) beginning at either 8, 12, or 15 weeks. *, significant.
Male Wistar rats received weekly intraperitoneal injections of DEN (50 mg/kg) for 16 weeks. Rats received vehicle control or gefitinib (2 mg/kg) daily beginning at either 8, 12, or 15 weeks and lasting until 18 weeks. To assess the extent of liver disease at the start of each treatment, a subgroup of rats were sacrificed after a two-week washout of DEN and the liver was harvested and processed for analysis. Masson's trichrome stains of liver sections from each animal were analyzed by a blinded pathologist. After 8 weeks and 12 weeks of DEN administration, no macroscopic findings were observed on the surface of the liver (FIG. 8A). […] After 15 weeks of DEN administration, the rats had progressed to late stage cirrhosis which could be observed macroscopically on the surface of the liver (FIG. 8A) as well as microscopically. Rats receiving vehicle or gefitinib were sacrificed at 18 weeks after a two-week washout of DEN. The liver was harvested and processed for analysis. Masson's trichrome stains of liver sections from each animal were scored by a blinded pathologist by the method of Ishak. […]

SMILES: COc1cc2ncnc(Nc3ccc(F)c(Cl)c3)c2cc1OCCCN1CCOCC1 [gefitinib, 4-Quinazolinamine, N-(3-chloro-4-fluorophenyl)-7-methoxy-6-(3-(4-morpholinyl)propoxy)]
- progression of liver fibrosis/pre-cirrhosis (Ishak) (2 mg/kg daily beginning at 8 weeks until 18 weeks): inhibited the progression of liver fibrosis/pre-cirrhosis
- progression of liver fibrosis/pre-cirrhosis (Ishak) (2 mg/kg daily beginning at 12 weeks until 18 weeks): inhibited the progression of liver fibrosis/pre-cirrhosis
